Test system: SkinEthic RHE/S/17 reconstituted human epidermis
Test: TEM ultrastructure of artificial constructs of human skin (SkinEthic) after treatment with ASA compositions
Type: cell-based
Method: Experiments Comparing Different ASA-Containing Compositions on the Ultrastructure of Artificial Constructs of Human Skin (SkinEthic)
Artificial Constructs of Human Skin
SkinEthic™ RHE/S/17 reconstituted human epidermis samples were used. This is an in vitro reconstituted human epidermis from normal human keratinocytes grown on a polycarbonate filter at the air-liquid interface.
The tissue samples were removed from the protective agarose and incubated in a multiwell with 6 wells with 1 ml of maintenance medium per well.
After about 14 hours of incubation with the described-above compositions, the epidermis inserts were cut and fixed in 500 microliters of fixative (glutaraldehyde 2.5%, paraformaldehyde 2% in cacodylate buffer 0.1 M at pH 7.4) for 2 hours at room temperature.
After trimming small rectangles of fabric, the samples were included in an epoxy resin. Ultra-thin slices were obtained and placed on copper screens, then stained with uranyl acetate and lead citrate.

- overall appearance of the basal, spinous and granular layers (TEM): preserved and similar to the control
SMILES: CC(O)CO (stereo not drawn) [Composition 3, propylene glycol]
- N. of corneocyte layers left after treatment (about 14 hours of incubation, TEM, not-treated control >25): 19-20
- efficacy as judged from corneocyte layers left (verbal rating of Table 1 data): poor efficacy

— US10993950B2, “Medical device for the treatment of HPV cutaneous infections” (Poli MD S.R.L., priority 2017, dated 2021)
